Measured values reported in publication PMC9250534, “Synthesis and direct assay of large macrocycle diversities by combinatorial late-stage modification at picomole scale” (Nature Communications, 2022).
Numbered stars: 1 amine (or outer) side, 2 acyl side, 3 side chain; on linkers, the order of the positions; unused ones are H or OH. Bridge positions count the residues as written; N and C are the ends. Square brackets hold non-standard residues; d marks the D form. Peptide text beside a SMILES is read from it. * marks the point of attachment. ξ: configuration not given here. ξPro(4ξ-NHCOC6H4-4-Cl) = O=C(NC1CNC(C(=O)O)C1)c1ccc(Cl)cc1; 2Thenoyl(5-Cl) = O=C(c1ccc(Cl)s1)*; Benzoyl(4-Cl) = O=C(c1ccc(Cl)cc1)*; Cysteamide = C(CS[*:3])N[*:1]; X1 = O=C(/C=C/c1ccccc1)*; Api = NC1(C(=O)O)CCNCC1; Dap = NC[CH](N)C(=O)O; X2 = O=C(C=Cc1ccccc1)*; Mpa = O=C(O)CCS

Target: MDM2 (Homo sapiens, UniProt Q00987)
Experiment: MDM2 binding screen: displacement of fluorescent p53 peptide probe FP53 (fluorescence polarization)
Conditions: crude macrocycle reactions; for fraction fluorescent probe displaced, Screen: initial screen
Procedure: We screened Library 2 in 384-microwell plates by dispensing the target protein MDM2 and reporter peptide into the wells containing the macrocycle reactions.
The products were screened for displacement of a p53-based fluorescent peptide from human MDM2. Final macrocycle concentrations were 10 µM. For each macrocycle, the MDM2 binding was measured once.
One fluorescence anisotropy reading was taken with a Tecan Infinite F200 Pro fluorescence plate reader (excitation at 485 nm, emission at 535 nm) at 25 °C. Data was collected and exported using the Tecan Infinite M200 Pro instrument software. The data was analyzed by Excel (version 2016).

Chain of MDM2 (Q00987 whole entry): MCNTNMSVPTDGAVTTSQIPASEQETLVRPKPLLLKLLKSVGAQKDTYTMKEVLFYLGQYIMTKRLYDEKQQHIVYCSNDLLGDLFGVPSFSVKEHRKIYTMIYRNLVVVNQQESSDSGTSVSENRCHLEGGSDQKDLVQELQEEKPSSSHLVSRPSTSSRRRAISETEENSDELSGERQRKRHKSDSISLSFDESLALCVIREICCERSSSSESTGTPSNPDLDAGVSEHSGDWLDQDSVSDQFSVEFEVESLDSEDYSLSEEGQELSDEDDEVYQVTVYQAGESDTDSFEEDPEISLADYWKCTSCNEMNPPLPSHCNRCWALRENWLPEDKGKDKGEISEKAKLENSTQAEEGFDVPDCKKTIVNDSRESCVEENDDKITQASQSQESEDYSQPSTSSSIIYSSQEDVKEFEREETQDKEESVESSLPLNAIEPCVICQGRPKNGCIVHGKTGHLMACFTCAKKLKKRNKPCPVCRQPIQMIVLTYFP

Q: How did the “fraction fluorescent probe displaced, Screen” value (Acid 25) turn out when `O=C1NC2(CCN(C(=O)c3ccc(Cl)cc3)CC2)C(=O)NCCSSCCC(=O)N2CCC[C@H]2C(=O)N[C@H]1Cc1ccccc1` [X B1 F D6 Acid 25] ([Mpa]PF[Api](Benzoyl(4-Cl))-Cysteamide; disulfide 1-C) was run?
A: 0.09

Q: What about the “fraction fluorescent probe displaced, Replicate” value (Acid 25) of the same compound?
A: 0.15

Q: `O=C1NC2(CCN(C(=O)C=Cc3ccccc3)CC2)C(=O)NCCSSCCC(=O)N2CCCC2C(=O)NC1Cc1ccccc1` (stereo not drawn) [X B1 F D6 Acid 91] ([Mpa]PF[Api](X2)-Cysteamide; disulfide 1-C; configuration not given here) was tested. Which “fraction fluorescent probe displaced, Screen” value (Acid 91) did it give?
A: 0.00268

Q: What about the “fraction fluorescent probe displaced, Replicate” value (Acid 91) of the same compound?
A: 0.04

Q: With `O=C1NC(Cc2ccccc2)C(=O)N2CCN(C(=O)c3ccc(Cl)s3)CC2C(=O)NCCSSCCC(=O)N2CCCC12` (stereo not drawn) [X B1 F D7 Acid 14] as the compound, how does the “fraction fluorescent probe displaced, Screen” value (Acid 14) read?
A: 0.053

Q: What about the “fraction fluorescent probe displaced, Replicate” value (Acid 14) of the same compound?
A: 0.12

Q: How did the “fraction fluorescent probe displaced, Screen” value (Acid 25) turn out when `O=C1NC(Cc2ccccc2)C(=O)N2CCN(C(=O)c3ccc(Cl)cc3)CC2C(=O)NCCSSCCC(=O)N2CCCC12` (stereo not drawn) [X B1 F D7 Acid 25] was run?
A: 0.0244

Q: And the “fraction fluorescent probe displaced, Replicate” value (Acid 25)?
A: 0.12

Q: For `O=C(NCC1NC(=O)C(Cc2c[nH]c3ccccc23)NC(=O)C2CCCN2C(=O)CCSSCCNC1=O)c1ccc(Cl)s1` (stereo not drawn) [X B1 W D3 Acid 14] ([Mpa]PW[Dap](2Thenoyl(5-Cl))-Cysteamide; disulfide 1-C; configuration not given here), which “fraction fluorescent probe displaced, Screen” value (Acid 14) is on record?
A: 0.23

Q: And the “fraction fluorescent probe displaced, Replicate” value (Acid 14)?
A: 0.15

Q: `O=C(NC[C@@H]1NC(=O)[C@H](Cc2c[nH]c3ccccc23)NC(=O)[C@@H]2CCCN2C(=O)CCSSCCNC1=O)c1ccc(Cl)cc1` [X B1 W D3 Acid 25] ([Mpa]PW[Dap](Benzoyl(4-Cl))-Cysteamide; disulfide 1-C) was tested. Which “fraction fluorescent probe displaced, Screen” value (Acid 25) did it give?
A: 0.25

Q: And the “fraction fluorescent probe displaced, Replicate” value (Acid 25)?
A: 0.25

Q: What does the source list for `O=C(/C=C/c1ccccc1)NC[C@@H]1NC(=O)[C@H](Cc2c[nH]c3ccccc23)NC(=O)[C@@H]2CCCN2C(=O)CCSSCCNC1=O` [X B1 W D3 Acid 91] ([Mpa]PW[Dap](X1)-Cysteamide; disulfide 1-C)?
A: fraction fluorescent probe displaced, Screen (Acid 91): 0.08; fraction fluorescent probe displaced, Replicate (Acid 91): 0.04

Q: Which results are given for `O=C(NC1CC2C(=O)NCCSSCCC(=O)N3CCCC3C(=O)NC(Cc3c[nH]c4ccccc34)C(=O)N2C1)c1ccc(Cl)cc1` (stereo not drawn) [X B1 W D5 Acid 25] ([Mpa]PW[ξPro(4ξ-NHCOC6H4-4-Cl)]-Cysteamide; disulfide 1-C; configuration not given here)?
A: fraction fluorescent probe displaced, Screen (Acid 25): 0.15; fraction fluorescent probe displaced, Replicate (Acid 25): 0.20

Q: `O=C1NC2(CCN(C(=O)c3ccc(Cl)s3)CC2)C(=O)NCCSSCCC(=O)N2CCC[C@H]2C(=O)N[C@H]1Cc1c[nH]c2ccccc12` [X B1 W D6 Acid 14] ([Mpa]PW[Api](2Thenoyl(5-Cl))-Cysteamide; disulfide 1-C) was tested. Which “fraction fluorescent probe displaced, Screen” value (Acid 14) did it give?
A: 0.20

Q: And the “fraction fluorescent probe displaced, Replicate” value (Acid 14)?
A: 0.12

Q: With `O=C1NC2(CCN(C(=O)/C=C/c3ccccc3)CC2)C(=O)NCCSSCCC(=O)N2CCC[C@H]2C(=O)N[C@H]1Cc1c[nH]c2ccccc12` [X B1 W D6 Acid 91] ([Mpa]PW[Api](X1)-Cysteamide; disulfide 1-C) as the compound, how does the “fraction fluorescent probe displaced, Screen” value (Acid 91) read?
A: 0.14

Q: And the “fraction fluorescent probe displaced, Replicate” value (Acid 91)?
A: 0.07

Q: For `O=C1NC(Cc2c[nH]c3ccccc23)C(=O)N2CCN(C(=O)c3ccc(Cl)s3)CC2C(=O)NCCSSCCC(=O)N2CCCC12` (stereo not drawn) [X B1 W D7 Acid 14], which “fraction fluorescent probe displaced, Screen” value (Acid 14) is on record?
A: 0.08

Q: And the “fraction fluorescent probe displaced, Replicate” value (Acid 14)?
A: 0.15

Q: Which “fraction fluorescent probe displaced, Screen” value (Acid 14) does the source give for `O=C1CCSSCCNC(=O)[C@H](Cc2ccccc2)NC(=O)[C@H](CNC(=O)c2ccc(Cl)s2)NC(=O)CCN1` [X B2 D3 F Acid 14] here?
A: -0.00483

Q: And the “fraction fluorescent probe displaced, Replicate” value (Acid 14)?
A: 0.0465

Q: Which results are given for `O=C1CCSSCCNC(=O)[C@H](Cc2ccccc2)NC(=O)[C@H](CNC(=O)c2ccc(Cl)cc2)NC(=O)CCN1` [X B2 D3 F Acid 25]?
A: fraction fluorescent probe displaced, Screen (Acid 25): 0.0244; fraction fluorescent probe displaced, Replicate (Acid 25): -0.0552

Q: How did the “fraction fluorescent probe displaced, Screen” value (Acid 91) turn out when `O=C(/C=C/c1ccccc1)NC[C@@H]1NC(=O)CCNC(=O)CCSSCCNC(=O)[C@H](Cc2ccccc2)NC1=O` [X B2 D3 F Acid 91] was run?
A: 0.0563

Q: And the “fraction fluorescent probe displaced, Replicate” value (Acid 91)?
A: -0.00827

Q: With `O=C1CCSSCCNC(=O)[C@H](Cc2c[nH]c3ccccc23)NC(=O)[C@H](CNC(=O)c2ccc(Cl)cc2)NC(=O)CCN1` [X B2 D3 W Acid 25] as the compound, how does the “fraction fluorescent probe displaced, Screen” value (Acid 25) read?
A: 0.19

Q: What about the “fraction fluorescent probe displaced, Replicate” value (Acid 25) of the same compound?
A: 0.22

Q: What does the source list for `O=C(/C=C/c1ccccc1)NC[C@@H]1NC(=O)CCNC(=O)CCSSCCNC(=O)[C@H](Cc2c[nH]c3ccccc23)NC1=O` [X B2 D3 W Acid 91]?
A: fraction fluorescent probe displaced, Screen (Acid 91): 0.27; fraction fluorescent probe displaced, Replicate (Acid 91): 0.14

Q: Which “fraction fluorescent probe displaced, Screen” value (Acid 14) does the source give for `O=C1CCSSCCNC(=O)[C@H](Cc2ccccc2)NC(=O)[C@@H]2C[C@H](NC(=O)c3ccc(Cl)s3)CN2C(=O)CCN1` [X B2 D5 F Acid 14] here?
A: 0.16

Q: What about the “fraction fluorescent probe displaced, Replicate” value (Acid 14) of the same compound?
A: 0.05

Q: For `O=C1CCSSCCNC(=O)C(Cc2ccccc2)NC(=O)C2CC(NC(=O)c3ccc(Cl)cc3)CN2C(=O)CCN1` (stereo not drawn) [X B2 D5 F Acid 25], which “fraction fluorescent probe displaced, Screen” value (Acid 25) is on record?
A: 0.16

Q: What about the “fraction fluorescent probe displaced, Replicate” value (Acid 25) of the same compound?
A: 0.05

Q: `O=C(C=Cc1ccccc1)NC1CC2C(=O)NC(Cc3ccccc3)C(=O)NCCSSCCC(=O)NCCC(=O)N2C1` (stereo not drawn) [X B2 D5 F Acid 91] was tested. Which “fraction fluorescent probe displaced, Screen” value (Acid 91) did it give?
A: -0.17

Q: What about the “fraction fluorescent probe displaced, Replicate” value (Acid 91) of the same compound?
A: -0.08

Q: Which “fraction fluorescent probe displaced, Screen” value (Acid 14) does the source give for `O=C1CCSSCCNC(=O)C(Cc2c[nH]c3ccccc23)NC(=O)C2CC(NC(=O)c3ccc(Cl)s3)CN2C(=O)CCN1` (stereo not drawn) [X B2 D5 W Acid 14] here?
A: 0.11

Q: What about the “fraction fluorescent probe displaced, Replicate” value (Acid 14) of the same compound?
A: 0.17

Q: How did the “fraction fluorescent probe displaced, Screen” value (Acid 91) turn out when `O=C(C=Cc1ccccc1)NC1CC2C(=O)NC(Cc3c[nH]c4ccccc34)C(=O)NCCSSCCC(=O)NCCC(=O)N2C1` (stereo not drawn) [X B2 D5 W Acid 91] was run?
A: 0.03

Q: What about the “fraction fluorescent probe displaced, Replicate” value (Acid 91) of the same compound?
A: 0.0168

Q: How did the “fraction fluorescent probe displaced, Screen” value (Acid 14) turn out when `O=C1CCSSCCNC(=O)[C@H](Cc2ccccc2)NC(=O)C2(CCN(C(=O)c3ccc(Cl)s3)CC2)NC(=O)CCN1` [X B2 D6 F Acid 14] was run?
A: 0.13

Q: What about the “fraction fluorescent probe displaced, Replicate” value (Acid 14) of the same compound?
A: 0.0229

Q: With `O=C1CCSSCCNC(=O)[C@H](Cc2c[nH]c3ccccc23)NC(=O)C2(CCN(C(=O)/C=C/c3ccccc3)CC2)NC(=O)CCN1` [X B2 D6 W Acid 91] as the compound, how does the “fraction fluorescent probe displaced, Screen” value (Acid 91) read?
A: 0.16

Q: And the “fraction fluorescent probe displaced, Replicate” value (Acid 91)?
A: 0.07

Q: Which results are given for `O=C1CCSSCCNC(=O)C(Cc2c[nH]c3ccccc23)NC(=O)C2CN(C(=O)c3ccc(Cl)s3)CCN2C(=O)CCN1` (stereo not drawn) [X B2 D7 W Acid 14]?
A: fraction fluorescent probe displaced, Screen (Acid 14): 0.17; fraction fluorescent probe displaced, Replicate (Acid 14): 0.07

Q: Which “fraction fluorescent probe displaced, Screen” value (Acid 91) does the source give for `O=C1CCSSCCNC(=O)C(Cc2c[nH]c3ccccc23)NC(=O)C2CN(C(=O)C=Cc3ccccc3)CCN2C(=O)CCN1` (stereo not drawn) [X B2 D7 W Acid 91] here?
A: 0.14

Q: And the “fraction fluorescent probe displaced, Replicate” value (Acid 91)?
A: 0.07

Q: Which results are given for `O=C1CCSSCCNC(=O)[C@H](CNC(=O)c2ccc(Cl)s2)NC(=O)[C@H](Cc2ccccc2)NC(=O)CCN1` [X B2 F D3 Acid 14]?
A: fraction fluorescent probe displaced, Screen (Acid 14): 0.0241; fraction fluorescent probe displaced, Replicate (Acid 14): 0.12

Q: `O=C1CCSSCCNC(=O)[C@H](CNC(=O)c2ccc(Cl)cc2)NC(=O)[C@H](Cc2ccccc2)NC(=O)CCN1` [X B2 F D3 Acid 25] was tested. Which “fraction fluorescent probe displaced, Screen” value (Acid 25) did it give?
A: 0.0569

Q: And the “fraction fluorescent probe displaced, Replicate” value (Acid 25)?
A: -0.03
